Like-named read-outs stand apart in the source and are kept apart here. Where no end group is shown, it is not given here.
Assay: Dose response of Hst1 and PIC in the presence of CWE
Type: in vitro ADME, human
Settings: CWE 1 mg/ml, 37°C, CZE, 0 h = 100%
Method: For the dose response of PIC and Hst1, three different concentrations of Hst1 were prepared (0.5 mg/ml, 1 mg/ml and 2 mg/ml) and two different concentrations of PIC were used. The final PIC concentration in the CWE (1 mg/ml) sample was 1:140 v/v (same as above) or 1:280 v/v (2x diluted). Mixtures were incubated at 37°C and samples were taken at 0, 24 and 96 h.
The samples were analyzed with a BioFocus 2000 capillary zone electrophoresis system (Bio-Rad Laboratories, Hercules, CA, USA) equipped with an uncoated fused-silica capillary of internal diameter 50 μm and a length of 24 cm. Samples were loaded by pressure injection (5 psi/sec). Separation was performed at 10 kV (cathode at the detector side) at 20°C using 0.1 M phosphate buffer (pH 2.5) as electrolyte and monitored continuously at 200 nm. Peaks were quantified with the BioFocus Integrator software. In order to quantify the percentage of intact peptides remaining after incubation with CWE, the ratios of histatins, rhIL-6 or rhCXCL8 to internal standard was set at 100% at 0h, and the ratios at the other incubation time points were related to this.

Intact Hst1, CWE + PIC 1:140 24h (Hst1 0.5 mg/ml, PIC:CWE 1:140 v/v, 24 h, experiment 1 of 3): 73.4639%
Intact Hst1, CWE + PIC 1:140 24h (Hst1 0.5 mg/ml, PIC:CWE 1:140 v/v, 24 h, experiment 2 of 3): 69.7277%
Intact Hst1, CWE + PIC 1:140 24h (Hst1 0.5 mg/ml, PIC:CWE 1:140 v/v, 24 h, experiment 3 of 3): 63.6084%
Intact Hst1, CWE + PIC 1:140 96h (Hst1 0.5 mg/ml, PIC:CWE 1:140 v/v, experiment 1 of 3): 54.3382%
Intact Hst1, CWE + PIC 1:140 96h (Hst1 0.5 mg/ml, PIC:CWE 1:140 v/v, experiment 2 of 3): 46.1353%
Intact Hst1, CWE + PIC 1:280 24h (Hst1 0.5 mg/ml, PIC:CWE 1:280 v/v, 24 h, experiment 1 of 3): 49.1645%
Intact Hst1, CWE + PIC 1:280 24h (Hst1 0.5 mg/ml, PIC:CWE 1:280 v/v, 24 h, experiment 2 of 3): 30.5445%
Intact Hst1, CWE + PIC 1:280 96h (Hst1 0.5 mg/ml, PIC:CWE 1:280 v/v, experiment 1 of 3): 24.1883%
Intact Hst1, CWE + PIC 1:280 96h (Hst1 0.5 mg/ml, PIC:CWE 1:280 v/v, experiment 2 of 3): 18.189%
Intact Hst1, CWE + PIC 1:140 24h (Hst1 1 mg/ml, PIC:CWE 1:140 v/v, 24 h, experiment 3 of 3): 58.7589%
Intact Hst1, CWE + PIC 1:140 96h (Hst1 1 mg/ml, PIC:CWE 1:140 v/v, experiment 3 of 3): 38.9986%
Intact Hst1, CWE + PIC 1:280 24h (Hst1 1 mg/ml, PIC:CWE 1:280 v/v, 24 h, experiment 3 of 3): 38.2658%
Intact Hst1, CWE + PIC 1:280 96h (Hst1 1 mg/ml, PIC:CWE 1:280 v/v, experiment 3 of 3): 25.9997%
Intact Hst1, CWE + PIC 1:140 24h (Hst1 2 mg/ml, PIC:CWE 1:140 v/v, 24 h, experiment 1 of 3): 77.6287%
Intact Hst1, CWE + PIC 1:140 24h (Hst1 2 mg/ml, PIC:CWE 1:140 v/v, 24 h, experiment 2 of 3): 76.5019%
Intact Hst1, CWE + PIC 1:140 24h (Hst1 2 mg/ml, PIC:CWE 1:140 v/v, 24 h, experiment 3 of 3): 68.9738%
Intact Hst1, CWE + PIC 1:140 96h (Hst1 2 mg/ml, PIC:CWE 1:140 v/v, experiment 1 of 3): 61.2993%
Intact Hst1, CWE + PIC 1:140 96h (Hst1 2 mg/ml, PIC:CWE 1:140 v/v, experiment 2 of 3): 47.6383%
Intact Hst1, CWE + PIC 1:140 96h (Hst1 2 mg/ml, PIC:CWE 1:140 v/v, experiment 3 of 3): 45.7764%
Intact Hst1, CWE + PIC 1:280 24h (Hst1 2 mg/ml, PIC:CWE 1:280 v/v, 24 h, experiment 1 of 3): 61.8953%
Intact Hst1, CWE + PIC 1:280 24h (Hst1 2 mg/ml, PIC:CWE 1:280 v/v, 24 h, experiment 2 of 3): 55.6946%
Intact Hst1, CWE + PIC 1:280 24h (Hst1 2 mg/ml, PIC:CWE 1:280 v/v, 24 h, experiment 3 of 3): 47.0948%
Intact Hst1, CWE + PIC 1:280 96h (Hst1 2 mg/ml, PIC:CWE 1:280 v/v, experiment 1 of 3): 42.3498%
Intact Hst1, CWE + PIC 1:280 96h (Hst1 2 mg/ml, PIC:CWE 1:280 v/v, experiment 2 of 3): 34.4262%
Intact Hst1, CWE + PIC 1:280 96h (Hst1 2 mg/ml, PIC:CWE 1:280 v/v, experiment 3 of 3): 43.3131%
remaining at 96 h, 0.5 mg/ml (human, chronic wound extracts (CWE), with protease inhibitor cocktail (PIC), PIC:CWE 1:140 v/v, Hst1 0.5 mg/ml, PIC:CWE 1:140 v/v, experiment 3 of 3, read-out: Intact Hst1, CWE + PIC 1:140 96h): 37.5%
remaining at 24 h, 1 mg/ml (human, chronic wound extracts (CWE), with protease inhibitor cocktail (PIC), PIC:CWE 1:140 v/v, Hst1 1 mg/ml, PIC:CWE 1:140 v/v, 24 h, experiment 1 of 3, read-out: Intact Hst1, CWE + PIC 1:140 24h): 76.2%
remaining at 24 h, 1 mg/ml (human, chronic wound extracts (CWE), with protease inhibitor cocktail (PIC), PIC:CWE 1:140 v/v, Hst1 1 mg/ml, PIC:CWE 1:140 v/v, 24 h, experiment 2 of 3, read-out: Intact Hst1, CWE + PIC 1:140 24h): 67%
remaining at 96 h, 1 mg/ml (human, chronic wound extracts (CWE), with protease inhibitor cocktail (PIC), PIC:CWE 1:140 v/v, Hst1 1 mg/ml, PIC:CWE 1:140 v/v, experiment 1 of 3, read-out: Intact Hst1, CWE + PIC 1:140 96h): 53.2%
remaining at 96 h, 1 mg/ml (human, chronic wound extracts (CWE), with protease inhibitor cocktail (PIC), PIC:CWE 1:140 v/v, Hst1 1 mg/ml, PIC:CWE 1:140 v/v, experiment 2 of 3, read-out: Intact Hst1, CWE + PIC 1:140 96h): 43.5%
remaining at 24 h, 0.5 mg/ml (human, chronic wound extracts (CWE), with protease inhibitor cocktail (PIC), PIC:CWE 1:280 v/v, Hst1 0.5 mg/ml, PIC:CWE 1:280 v/v, 24 h, experiment 3 of 3, read-out: Intact Hst1, CWE + PIC 1:280 24h): 34.4%
remaining at 96 h, 0.5 mg/ml (human, chronic wound extracts (CWE), with protease inhibitor cocktail (PIC), PIC:CWE 1:280 v/v, Hst1 0.5 mg/ml, PIC:CWE 1:280 v/v, experiment 3 of 3, read-out: Intact Hst1, CWE + PIC 1:280 96h): 20.3%
remaining at 24 h, 1 mg/ml (human, chronic wound extracts (CWE), with protease inhibitor cocktail (PIC), PIC:CWE 1:280 v/v, Hst1 1 mg/ml, PIC:CWE 1:280 v/v, 24 h, experiment 1 of 3, read-out: Intact Hst1, CWE + PIC 1:280 24h): 60.2%
remaining at 24 h, 1 mg/ml (human, chronic wound extracts (CWE), with protease inhibitor cocktail (PIC), PIC:CWE 1:280 v/v, Hst1 1 mg/ml, PIC:CWE 1:280 v/v, 24 h, experiment 2 of 3, read-out: Intact Hst1, CWE + PIC 1:280 24h): 51.5%
remaining at 96 h, 1 mg/ml (human, chronic wound extracts (CWE), with protease inhibitor cocktail (PIC), PIC:CWE 1:280 v/v, Hst1 1 mg/ml, PIC:CWE 1:280 v/v, experiment 1 of 3, read-out: Intact Hst1, CWE + PIC 1:280 96h): 37%
remaining at 96 h, 1 mg/ml (human, chronic wound extracts (CWE), with protease inhibitor cocktail (PIC), PIC:CWE 1:280 v/v, Hst1 1 mg/ml, PIC:CWE 1:280 v/v, experiment 2 of 3, read-out: Intact Hst1, CWE + PIC 1:280 96h): 41.5%
Sequence: DSHEKRHHGYRRKFHEKHHSHREFPFYGDYGSNYLYDN [Hst1]

Source: PMC4809600, “The Influence of Chronic Wound Extracts on Inflammatory Cytokine and Histatin Stability” (PLoS ONE, 2016)
